We go through nine compounds from patent US4176189A, “Insecticidal and acaricidal hydantoin N-methylol esters” (Sumitomo Chemical Company, Limited, priority 1977, dated 1979).

SMILES strings stand for the structures. Like-named read-outs stand apart in the source and are kept apart here.

What all share (format): in vivo
For assay [1], the system named is northern house mosquito female adults (Culex pipiens pallens). Put plainly: Oil spray in (70 cm)^3 glass chamber, northern house mosquito female adults, KT50 and mortality (Experimental Example 2). Conditions: for mortality at 0.1 %: Culex pipiens. Here is the method: (§1) 0.1 Part of each of the present compounds was dissolved in kerosene and made up to 100 parts with kerosene. Thus, the oil spray of each compound was obtained. Ten northern house mosquito female adults (Culex pipiens pallens) and 10 housefly adults (Musca domestica) were liberated in a (70 cm)^3 glass chamber. 0.7 ml of the oil spray was applied and the number of knocked down insects was counted with the lapse of time. The value of KT50 was obtained from the mean knock-down ratio of three replications according to Finney's graphic method. After 10 minutes, the knocked down insects were collected and transferred to a recovery container and fed with a 5% sugar solution. After 24 hours, the dead and alive were examined.

Assay [2] concerns housefly adults (Musca domestica). Put plainly: Oil spray in (70 cm)^3 glass chamber, housefly adults, KT50 and mortality (Experimental Example 2). To be noted: for mortality at 0.1 %: Musca domestica. Here is the method:
as §1

In assay [3] the test system is housefly female adults (Musca domestica). Put plainly: Housefly female adults on treated filter paper in polyethylene cup, mortality after 48 hours (Experimental Example 1). The procedure: Ten percent emulsifiable concentrates were prepared as in the Preparation example 3.
At the bottom of a polyethylene cup of 5.5 cm in diameter was placed a filter paper of the same size. 0.75 Ml of a 200-fold aqueous dilute solution of each emulsifiable concentrate (corresponding to 500 ppm) was dropped on the filter paper, and 30 mg of sucrose as a food was uniformly placed. Ten housefly female adults (Musca domestica) were liberated in the cup which was then covered with a lid. After 48 hours, the dead and alive were examined to obtain mortality (4 replications).

The subject of assay [4] is adult German cockroaches (Blattella germanica). Put plainly: Flushing out of German cockroaches from shelter (Experimental Example 8). To be noted: 0.7 ml of 0.1% oil spray. The procedure: Ten adult German cockroaches (Blattella germanica) were liberated in a plywood-made trigonal prism like shelter with diet and water. The shelter containing cockroaches was made stand opening upward in a glass chamber (70 cm)^3, and 0.7 ml of 0.1% oil spray of each compound was applied to the chamber. The number of flushed out insects was counted with the lapse of time.

[5] abbreviates: northern house mosquito female adult, 0.1% oil spray, 0.7 ml.
[6] abbreviates: housefly adult, 0.1% oil spray, 0.7 ml.

As for `C#CCN1CC(=O)N(COC(=O)[C@@H]2[C@@H](C=C(Cl)Cl)C2(C)C)C1=O` [Present compound (1) (d-trans isomer), 1-Propargyl-3-hydantoinylmethyl 2,2-dimethyl-3-(2,2-dichlorovinyl)cyclopropanecarboxylate], the mortality (commonly the share of the test organisms that died) at 0.1 % in assay [1] (24 h) came out at 100%; in assay [2] (24 h), 80%. The KT50 in assay [1] (setting [5]) was determined as 30 s; in assay [2] (setting [6]), 60 s. Besides, the mortality at 500 µg/mL in assay [3] (48 h) amounted to 100%.

Take `C#CCN1C(=O)CN(COC(=O)C2C(C=C(Cl)Cl)C2(C)C)C1=O` (stereo not shown) [Present compound (4), 3-Propargyl-1-hydantoinylmethyl 2,2-dimethyl-3-(2,2-dichlorovinyl)cyclopropanecarboxylate]: the mortality at 0.1 % in assay [1] (24 h) stood at 85%; in assay [2] (24 h) it was 30%. In addition, the KT50 in assay [1] (setting [5]) amounted to 50 s; in assay [2] (setting [6]), 280 s. The mortality at 500 µg/mL in assay [3] (48 h) was determined as 100%.

Take `C#CCN1CC(=O)N(COC(=O)[C@@H]2[C@@H](C=C(C)C)C2(C)C)C1=O` [Present compound (7), 1-Propargyl-3-hydantoinylmethyl chrysanthemate]: the mortality at 0.1 % came out at 100% in assay [1] (24 h) and 10% in assay [2] (24 h). In addition, the KT50 in assay [1] (setting [5]) turned out to be 30 s; in assay [2] (setting [6]), 72 s. The mortality at 500 µg/mL in assay [3] (48 h) worked out at 100%.

On to `C#CCN1CC(=O)N(COC(=O)[C@@H]2[C@H](C=C(Br)Br)C2(C)C)C1=O` [Present compound (11) (d-cis isomer), 1-Propargyl-3-hydantoinylmethyl 2,2-dimethyl-3-(2,2-dibromovinyl)cyclopropanecarboxylate], for which the mortality at 0.1 % was determined as 95% in assay [1] (24 h) and 10% in assay [2] (24 h). For the same compound, the values for the KT50 in assay [1] (setting [5]) and in assay [2] (setting [6]) were 38 s and 96 s, respectively. The compound also registered a mortality at 500 µg/mL in assay [3] (48 h) of 100%.

Regarding `C#CCN1CC(=O)N(COC(=O)[C@@H]2[C@@H](C=C(Br)Br)C2(C)C)C1=O` [Present compound (11) (d-trans isomer), 1-Propargyl-3-hydantoinylmethyl 2,2-dimethyl-3-(2,2-dibromovinyl)cyclopropanecarboxylate], the mortality at 0.1 % in assay [1] (24 h) was 85%; in assay [2] (24 h), 30%. For the same compound, the KT50 turned out to be 35 s in assay [1] (setting [5]) and 78 s in assay [2] (setting [6]). The same compound had a mortality at 500 µg/mL in assay [3] (48 h) of 100%.

Take `C#CCN1CC(=O)N(COC(=O)C(c2ccc(OC)cc2)C(C)C)C1=O` (stereo not drawn) [Present compound (17), 1-Propargyl-3-hydantoinylmethyl α-(4-methoxyphenyl)isovalerate]: the mortality at 0.1 % in assay [1] (northern house mosquito female adult, 0.1% oil spray, 0.7 ml, after 24 hours, read-out: Mortality) is 75%; in assay [2] (housefly adult, 0.1% oil spray, 0.7 ml, after 24 hours, read-out: Mortality), 35%. The KT50 in assay [1] (setting [5]) is 140 s; in assay [2] (setting [6]), 280 s. Further, in assay [3] (200-fold aqueous dilution of emulsifiable concentrate (500 ppm), 48 hours, housefly female adults, read-out: Mortality), the mortality at 500 µg/mL was 95%.

As to `C#CCN1C(=O)N(COC(=O)C2C(C=C(Cl)Cl)C2(C)C)C(=O)C1C` (stereo not shown) [Present compound (22), 1-Propargyl-5-methyl-3-hydantoinylmethyl 2,2-dimethyl-3-(2,2-dichlorovinyl)cyclopropanecarboxylate], the mortality at 0.1 % in assay [1] (24 h) came out at 85%; in assay [2] (24 h), 20%. In addition, the KT50 was 75 s in assay [1] (setting [5]) and 114 s in assay [2] (setting [6]).

In the case of `CNC(=O)Oc1ccccc1OC(C)C` [Propoxur, reference compound], the Flushing out in assay [4] (38") is 0%; in assay [4] (75") it was 0%; in assay [4] (150") it was 0%; in assay [4] (300") it was 0%; in assay [4] (600"), 5%.

For the compound `CC(C)=CC1C(C(=O)OCN2C(=O)C3=C(CCCC3)C2=O)C1(C)C` (stereo not shown) [Tetramethrin, N-(chrysanthemoxymethyl)-3,4,5,6-tetrahydrophthalimide, reference compound], the results for the mortality at 0.1 % in assay [1] (24 h) and in assay [2] (24 h) were 45% and 20%, respectively. Besides, the KT50 stood at 162 s in assay [1] (setting [5]) and 372 s in assay [2] (setting [6]).
